The values that follow come from patent publication US9126945B2, “N-(3-carbamoylphenly)-1H-pyrazole-5-carboxamide derivatives and the use thereof for controlling animal pests” (BAYER INTELLECTUAL PROPERTY GMBH, priority 2011, dated 2015).

The subject of one data set is Tetranychus urticae. Put plainly: Tetranychus test, OP-resistant (TETRUR spray treatment), bean leaf discs. The class given is in vivo. The settings on record: for efficacy in %: application rate 500 g/ha, after 6 days. The protocol:
Tetranychus Test, OP-Resistant (TETRUR Spray Treatment)
After a time of 6 days, the efficacy in % is determined.

In another data set the test system is Myzus persicae. Put plainly: Myzus test (MYZUPE spray treatment). The class given is in vivo. The conditions noted are these: for efficacy in %: application rate 500 g/ha, after 6 days. The protocol:
Myzus test (Myzupe spray treatment)
After 6 days, the efficacy in % is determined.
Myzus Test (MYZUPE Spray Treatment)

A further data set concerns Spodoptera frugiperda. Put plainly: Spodoptera frugiperda test (SPODFR spray treatment), maize leaf discs. In kind it is in vivo. The conditions noted are these: application rate 500 g/ha; after 7 days. The text has this:
Spodoptera frugiperda Test (SPODFR Spray Treatment)

Data set [1] has as its system Phaedon cochleariae. Put plainly: Phaedon test (PHAECO spray treatment), Chinese cabbage leaf discs. The conditions noted are these: for efficacy in %: application rate 500 g/ha, after 7 days.
Data set [2] is described as follows: log P by HPLC, EEC Directive 79/831 Annex V.A8, method a). The class given is physicochemical. The protocol: (§1) ^a) Note regarding the determination of the log P values and mass detection The determination of the given log P values was carried out in accordance with EEC Directive 79/831 Annex V.A8 by HPLC (High Performance Liquid Chromatography) on a reversed-phase column (C18). Agilent 1100 LC system; 50*4.6 Zorbax Eclipse Plus C18 1.8 micron; mobile phase A: acetonitrile (0.1% formic acid); mobile phase B: water (0.09% formic acid); linear gradient from 10% acetonitrile to 95% acetonitrile in 4.25 min, then 95% acetonitrile for a further 1.25 min; oven temperature 55° C.; flow rate: 2.0 ml/min Mass detection is via an Agilend MSD system.
as §1, with “mass detection:” for “mass detection”, “2.0 ml/min.” for “2.0 ml/min”

For data set [3], the system named is Phaedon cochleariae. Kind of data set: Phaedon cochleariae spray test (PHAECO), cabbage leaves, ppm. The class given is in vivo. The conditions noted are these: 168 h, 4 ppm, 7 dat. An excerpt: Phaedon cochleariae Spray Test (PHAECO)
Solvent: 7 parts by weight of dimethylformamide
Emulsifier: 2 parts by weight of alkylaryl polyglycol ether
(§2) If the addition of ammonium salts or/and penetrants is required, these are in each case added in a concentration of 1000 ppm to the solution of the preparation.

In the next data set the test system is Nilaparvata lugens. Kind of data set: Nilaparvata lugens spray test (NILALU). The class given is in vivo. The settings on record: 168 h, 500 g/ha, 7 dat.
Source text: Nilaparvata lugens Spray Test (NILALU)
as §2

A further data set deals with Ctenocephalides felis. Put plainly: Ctenocephalides felis oral (CTECFE). The class given is in vivo. The protocol: Ctenocephalides felis Oral (CTECFE)
Solvent: 1 part by weight of dimethyl sulphoxide
For the purpose of producing a suitable preparation of active compound, 10 mg of active compound are mixed with 0.5 ml of dimethyl sulphoxide. A portion of the concentrate is diluted with citrated cattle blood, and the desired concentration is prepared.
About 20 unfed adult fleas (Ctenocephalides felis) are placed into a chamber which is closed at the top and bottom with gauze. A metal cylinder whose bottom end is closed with parafilm is placed onto the chamber. The cylinder contains the blood/active compound preparation, which can be taken up by the fleas through the parafilm membrane. After 2 days, the kill in % is determined.
For the purpose of preparing an appropriate active compound formulation, 10 mg of active compound are mixed with 0.5 ml of dimethyl sulphoxide. A portion of the concentrate is diluted with citrated cattle blood, and the desired concentration is prepared.
About 20 unfed adult fleas (Ctenocephalides felis) are placed into a chamber which is closed at the top and bottom with gauze. A metal cylinder whose bottom end is closed with parafilm is placed onto the chamber. The cylinder contains the blood/active compound preparation, which can be taken up by the fleas through the parafilm membrane.

Another data set deals with Boophilus microplus. Kind of data set: Boophilus microplus test (BOOPMI injection). The class given is in vivo. As to the method:
Boophilus microplus Test (BOOPMI Injection)
(§3) Solvent: dimethyl sulphoxide
The active compound solution is injected into the abdomen (Boophilus microplus), and the animals are transferred into dishes and stored in a climate-controlled room. The activity is assessed by laying of fertile eggs.
The active compound solution is injected into the abdomen (Boophilus microplus), and the animals are transferred into dishes and stored in a climate-controlled room.
The activity is assessed by laying of fertile eggs. 100% means that none of the ticks has laid any fertile eggs.

Data set [4] has as its system Boophilus microplus females of the SP-resistant Parkhurst strain. Put plainly: Boophilus microplus test (DIP). The class given is in vivo. The settings on record: Rhipicephalus microplus, 168 h; BOOPMI DIP; 100 ppm; 7 dat. The protocol: Boophilus microplus Test (DIP)
Test animals: adult engorged Boophilus microplus females of the SP-resistant Parkhurst strain
as §3
10 mg of active compound are dissolved in 0.5 ml of dimethyl sulphoxide. For the purpose of preparing a suitable formulation, the active compound solution is diluted with water to the concentration desired in each case.
This active compound preparation is pipetted into tubes. 8-10 ticks are transferred into a further tube with holes. The tube is immersed into the active compound formulation, and all ticks are completely wetted. After the liquid has rum off, the ticks are transferred to filter discs in plastic dishes and kept in a climatized room. The activity is assessed after 7 days by laying of fertile eggs. Eggs whose fertility is not outwardly visible are stored in glass tubes in a climate-controlled cabinet until the larvae hatch. An efficacy of 100% means that none of the ticks has laid any fertile eggs.
10 mg of active compound are dissolved in 0.5 ml of dimethyl sulphoxide. For the purpose of preparing a suitable formulation, the active compound solution is diluted with water to the concentration desired in each case (in ppm).
This active compound preparation is pipetted into tubes. 8-10 ticks are transferred into a further tube with holes. The tube is immersed into the active compound formulation, and all ticks are completely wetted. After the liquid has run out, the ticks are transferred onto filter discs in plastic dishes and stored in a climate-controlled room.
The activity is assessed after the desired time by laying of fertile eggs. Eggs whose fertility is not evident from the outside are kept in glass tubes in a climate-controlled cabinet until the larvae have hatched. An effect of 100% means that none of the ticks has laid any fertile eggs.

Setting [5] is: Myzus persicae, 144 h, MYZUPE, 6 dat.
The mark [6] stands for this setting: cell marked a): HPLC, reversed-phase C18, acetonitrile/water with formic acid, gradient 10% to 95% acetonitrile.
[7] abbreviates: reversed-phase C18 HPLC column; HPLC-MS method a), reversed-phase C18, acetonitrile/water with formic acid.
Setting [8] is: cell prints no method mark; Ex. 40 value equals the log P given under method a).

For `Cn1nc(C(F)(F)C(F)(F)F)c(C(F)(F)F)c1C(=O)Nc1ccc(F)c(C(=O)NC2CC2)c1` [Ik-155, reference compound], the inhibition at 100 g/ha was determined as 0% in the data set on Tetranychus urticae (Tetranychus urticae, foliar, 144 h, TETRUR, 100 g/ha, 6 dat) and 0% with Myzus persicae (setting [5]).

As to `CCN(C(=O)c1cc(N(C)C(=O)c2c(C(F)(F)F)c(C(F)(F)C(F)(F)F)nn2C)ccc1Cl)C1(C#N)CC1` [Example 4], the efficacy in % in the data set on Tetranychus urticae, with Myzus persicae, in the data set with Spodoptera frugiperda and with Phaedon cochleariae [1] was 100% each time. The logP in data set [2] (setting [6]) is reported as 3.77 ^a).

`Cn1nc(C(F)(F)C(F)(F)F)c(C(F)(F)F)c1C(=O)Nc1ccc(Br)c(C(=O)NC2CC2)c1` [Ik-175, reference compound]: the inhibition at 100 g/ha with Myzus persicae (setting [5]) came out at 0%. The inhibition at 4 ppm with Phaedon cochleariae [3] stood at 10%. Further, in the data set with Nilaparvata lugens, the inhibition at 500 g/ha was found to be 0%.

With `Cn1nc(C2(F)CC2)c(Br)c1C(=O)Nc1ccc(Cl)c(C(=O)NC2(C#N)CC2)c1` [Example 1, 4-Bromo-N-{4-chloro-3-[(1-cyanocyclopropyl)carbamoyl]phenyl}-3-(1-fluorocyclopropyl)-1-methyl-1H-pyrazole-5-carboxamide], the efficacy in % in the data set on Tetranychus urticae and in the data set with Phaedon cochleariae [1] was 100% in each case. The compound further displayed a chromatographic logP in data set [2] (setting [7]) of 2.5.

Regarding `CN(C(=O)c1c(C(F)(F)F)c(C(F)(F)F)nn1C)c1ccc(Cl)c(C(=O)NC2(C#N)CC2)c1` [Example 2, N-{4-Chloro-3-[(1-cyanocyclopropyl)carbamoyl]phenyl}-N,1-dimethyl-3,4-bis(trifluoromethyl)-1H-pyrazole-5-carboxamide], the efficacy in % in the data set on Tetranychus urticae, in the data set on Myzus persicae, in the data set with Spodoptera frugiperda and in the data set on Phaedon cochleariae [1] was 100% throughout. In addition, in the data set with Ctenocephalides felis (100 ppm, after 2 days), the “kill in % (effect)” value is recorded as 100%. Also, the chromatographic logP in [2] (setting [7]) was found to be 2.81. Besides, in the data set on Boophilus microplus (20 μg/animal, after 7 days), the “efficacy in % (laying of fertile eggs)” value is given as 100%.

In data set [2] (setting [8]), `Cn1nc(C(F)(F)C(F)(F)F)c(C(F)(F)F)c1C(=O)Nc1cc(Cl)c(Br)c(C(=O)NC2(C#N)CC2)c1` [Example 16] came in with a logP of 3.73.

The compound `Cn1nc(C(F)(F)C(F)(F)F)c(C(F)(F)F)c1C(=O)N(CC#N)c1ccc(Cl)c(C(=O)NC2(C#N)CC2)c1` [Example 44] returned a logP in data set [2] (setting [8]) of 3.25.

With `CN(C(=O)c1c(Cl)c(C2(Cl)CC2)nn1C)c1ccc(Cl)c(C(=O)NC2(C#N)CC2)c1` [Example 3], the efficacy in % with Tetranychus urticae and with Phaedon cochleariae [1] was 100% each time. Besides, the log partition coefficient (logP) in data set [2] (setting [6]) is recorded as 2.46 ^a).

Take `CCC(=O)N(C(=O)c1c(C(F)(F)F)c(C(F)(F)C(F)(F)F)nn1C)c1ccc(Cl)c(C(=O)N(C(=O)CC)C2(C#N)CC2)c1` [Example 60]: the logP in [2] (setting [8]) was found to be 4.68.

Turning to `CCn1nc(C(F)(F)C(F)(F)F)c(C(F)(F)F)c1C(=O)Nc1ccc(F)c(C(=O)NC2(C#N)CC2)c1` [Example 37], the logP in [2] (setting [8]) amounted to 3.44.

Turning to `CCOC(=O)c1c(Cl)c(C2(Cl)CC2)nn1C` [Ethyl 4-chloro-3-(1-chlorocyclopropyl)-1-methyl-1H-pyrazole-5-carboxylate], the chromatographic logP in data set [2] (setting [7]) turned out to be 3.52.

With `CSc1c(C(F)(F)C(F)(F)F)nn(C)c1C(=O)Nc1ccc(Cl)c(C(=O)NC2(C#N)CC2)c1` [Example 42], in data set [2] (setting [8]), the log partition coefficient (logP) was determined as 3.43.

In the data set on Myzus persicae (Myzus persicae, 144 h, MYZUPE, 20 g/ha, 6 dat), `CCC1CC1NC(=O)c1cc(NC(=O)c2c(C(F)(F)F)c(C(F)(F)C(F)(F)F)nn2C)ccc1Cl` (stereo not drawn) [Ik-286, reference compound] had an inhibition at 20 g/ha of 0%. In addition, the inhibition at 100 g/ha in the data set with Phaedon cochleariae [1] (Phaedon cochleariae, in Brassica rapa, foliar, 168 h, read-out: % Activity dat) was determined as 0%. For the same compound, in the data set with Ctenocephalides felis (Ctenocephalides felis, po, 48 h, CTECFE, 4 ppm, 2 dat), the inhibition at 4 ppm turned out to be 0%. The inhibition at 100 ppm in data set [4] came out at 40%. Also, in the data set with Boophilus microplus (BOOPMI injection, 0.16 μg/animal, 7 dat), the “% Activity dat” value amounted to 20%.

Compound `Cn1nc(C(F)(F)C(F)(F)F)c(C(F)(F)F)c1C(=O)Nc1cc(Br)c(Cl)c(C(=O)NC2(C#N)CC2)c1` [Example 13] yielded a logP in [2] (setting [8]) of 3.67.

In the case of `CCC(=O)N(C(=O)c1c(C(F)(F)F)c(C(F)(F)C(F)(F)F)nn1C)c1ccc(Cl)c(C(=O)NC2(C#N)CC2)c1` [Example 33], the logP in [2] (setting [8]) was 3.91.

Turning to `N#CC1(NC(=O)c2cc(NC(=O)c3c(C(F)(F)F)c(C(F)(F)C(F)(F)F)nn3CC(F)(F)F)ccc2Cl)CC1` [Example 64], the logP in [2] (setting [8]) was 3.60.

`CN(C(=O)c1cc(NC(=O)c2c(C(F)(F)F)c(C(F)(F)C(F)(F)F)nn2C)ccc1Cl)C1(C#N)CC1` [Example 62] returned a logP in [2] (setting [8]) of 3.66.

With `Cn1nc(C(F)(F)C(F)(F)F)c(C(F)(F)F)c1C(=O)N(Cc1ccccn1)c1ccc(Cl)c(C(=O)NC2(C#N)CC2)c1` [Example 32], the lipophilicity (logP) in data set [2] (setting [8]) was 3.53.

In [2] (setting [8]), `CCCn1nc(C(F)(F)C(F)(F)F)c(C(F)(F)F)c1C(=O)Nc1ccc(Cl)c(C(=O)NC2(C#N)CC2)c1` [Example 35] returned a logP of 3.87.

For `CN(C(=O)c1c(C(F)(F)F)c(C(F)(F)C(F)(F)F)nn1C)c1ccc(Cl)c(C(=O)N(C)C2(C#N)CC2)c1` [Example 5], the efficacy in % in the data set with Tetranychus urticae is reported as 100%; in the data set with Myzus persicae it was 90%; with Spodoptera frugiperda, 100%; in the data set with Phaedon cochleariae [1], 100%. For the same compound, in [2] (setting [6]), the logP is 3.59 ^a).

With `CC(=O)N(C(=O)c1cc(NC(=O)c2c(C(F)(F)F)c(C(F)(F)C(F)(F)F)nn2C)ccc1Cl)C1(C#N)CC1` [Example 40, N-{3-[Acetyl(1-cyanocyclopropyl)carbamoyl]-4-chlorophenyl}-1-methyl-3-(pentafluoroethyl)-4-(trifluoromethyl)-1H-pyrazole-5-carboxamide], the chromatographic logP in data set [2] (setting [7]) and in [2] (reversed-phase HPLC column (C18); cell prints no method mark; Ex. 40 value equals the log P given under method a)) was 3.81 throughout.

In turn, `Cn1nc(C(F)(F)C(F)(F)F)c(C(F)(F)F)c1C(=O)N(Cc1cccnc1)c1ccc(Cl)c(C(=O)NC2(C#N)CC2)c1` [Example 54] returned a logP in data set [2] (setting [8]) of 2.85.
